Read-outs that look alike come from different tables or passages of the source.
Key:
PepX = assay: Effect of protease inhibitors (PMSF, EDTA) on partially purified PepX activity, Gly-Pro-pNA substrate; type: biochemical, Lacticaseibacillus sp. PRA205; settings: pH 7.0, 37 °C; for effect on PepX enzymatic activity (decrease): inhibitor 1 mmol/L
Protocol: PepX activity in the Lcb. casei PRA205 cytoplasmic extract was assessed in a 96-well plate using glycyl-prolyl-p-nitroanilide (Gly-Pro-pNA) as a specific substrate in the absence and presence of inhibitors. The reaction mixture containing 235 µL of 50 mmol/L Tris-Cl buffer (pH 7) and 5 µL of Gly-Pro-pNA substrate (previously dissolved in the same buffer in a concentration of 6.4 mmol/L) was pre-incubated at 37 °C for 5 min, before the addition of 10 µL of cytoplasmic extract. The same reactions were also carried out in the presence of EDTA and PMSF at increasing concentrations of 0.1, 0.5, 1, 5 and 10 mmol/L. Controls contained a buffer instead of an extract. After incubation for 2 h at 37 °C, reactions were stopped with 50 µL of acetic acid (30%) and the release of pNA was measured spectrophotometrically at 405 nm.
The effect of temperature on the PepX activity was determined as described above, modifying the incubation temperature while maintaining a constant pH of 7. The assay was carried out at four temperatures: 5 °C, 35 °C, 40 °C, and 45 °C. The effect of pH on enzyme activity was evaluated at a constant temperature of 37 °C by modifying the pH of the reaction buffer. Tris-HCL buffer (50 mmol/L) was utilized for reactions at pH 4–9, whereas sodium Tris-HCL buffer (50 mmol/L) was used for the assay at pH 7.0. The effect of protease inhibitors was tested by supplementing the reaction mix with EDTA or PMSF at final concentrations of 0, 1, 2, 5, or 10 mmol/L under standard conditions (pH 7.0, 37 °C).

[1] = system: di-peptidyl-peptidase-IV (DPP-IV); settings: cited from earlier work
Protocol: (§1) Considering the cleavage specificity of PepX and the presence of proline residues in many dairy-derived BPs, the ability of PepX to hydrolyse selected BPs was evaluated. Selected BPs were well-known effective inhibitors of the enzymes ACE and di-peptidyl-peptidase-IV (DPP-IV). […] These two peptides have been identified in several fermented dairy products such as yoghurt and cheeses. The other peptides, ...

ACE = settings: cited from earlier work
Protocol: as §1

blood pressure [2] = settings: rats; cited from earlier work
blood pressure [3] = settings: humans; cited from earlier work

O=C(O)CN(CCN(CC(=O)O)CC(=O)O)CC(=O)O [EDTA]
effect on PepX enzymatic activity (decrease) (PepX; vs control without inhibitor): no effect
residual PepX activity (PepX; inhibitor 10 mmol/L, vs control without inhibitor): 40%

O=S(=O)(F)Cc1ccccc1 [PMSF]
effect on PepX enzymatic activity (decrease) (PepX; vs control without inhibitor): more than 40%
effect on PepX enzymatic activity (PepX; inhibitor 5 mmol/L): completely abolished
effect on PepX enzymatic activity (PepX; inhibitor 10 mmol/L): completely abolished

APFPE
DPP-IV inhibition [1]: potent DPP-IV inhibitors

IPPL
DPP-IV inhibition [1]: potent DPP-IV inhibitors

Ile-Pro-Pro [IPP, anti-hypertensive lactotripeptide derived from β-casein]
ACE inhibition (ACE): potent ACE inhibitors
reduction of blood pressure in vivo (blood pressure [2]): effective in vivo in reducing blood pressure
reduction of blood pressure in vivo (blood pressure [3]): effective in vivo in reducing blood pressure

LPPT
DPP-IV inhibition [1]: potent DPP-IV inhibitors

Val-Pro-Pro [VPP, anti-hypertensive lactotripeptide derived from β-casein]
ACE inhibition (ACE): potent ACE inhibitors
reduction of blood pressure in vivo (blood pressure [2]): effective in vivo in reducing blood pressure
reduction of blood pressure in vivo (blood pressure [3]): effective in vivo in reducing blood pressure
